{"source": "patent US20110033519A1", "about": "“Device with Aromatase Inhibitor for the Treatment and Prevention of Uterine Fibroids and Method of Use” (priority 2009, published 2011)", "origin": "cited, not measured here", "key": {"human sperm": {"tested_on": "human sperm", "conditions": "incubated in a solution of copper ions; after 120 minutes"}, "fibroids": {"tested_on": "fibroids", "conditions": "three months"}}, "note": "Like-named read-outs stand apart in the source and are kept apart here.", "data": [{"molecule": "copper ions", "values": [{"measurement": "human sperm immotile", "setting": "human sperm", "value": "Ninety-five"}]}, {"molecule": "N#Cc1ccc(C(c2ccc(C#N)cc2)n2cncn2)cc1", "note": "[Letrozole]", "values": [{"measurement": "reduction in fibroid volume", "setting": "fibroids; study of 35 women, 2.5 mg per day orally", "value": 45, "unit": "%"}, {"measurement": "reduction in fibroid volume", "setting": "fibroids; trial of 16 women, oral, 5 mg/day", "value": 47, "unit": "%"}]}, {"molecule": "CC(C)(C#N)c1cc(Cn2cncn2)cc(C(C)(C)C#N)c1", "note": "[Anastrozole]", "values": [{"measurement": "reduction in fibroid volume", "setting": "fibroids; oral, 1 mg/day", "value": 56, "unit": "%"}]}]}
